In article PMC6736736 (Molecular microbiology, 2019):

Key:
ZagA (YciC) [1] = target: T1, ZagA (YciC) (Bacillus subtilis, UniProt P94400); assay: inhibition of ZTP hydrolysis, malachite green assay; type: biochemical; details: substrate ZTP
ZagA (YciC) [2] = target: T1, ZagA (YciC); assay: inhibition of GTP hydrolysis, malachite green assay; type: biochemical; details: substrate GTP

T1 sequence (P94400 whole entry): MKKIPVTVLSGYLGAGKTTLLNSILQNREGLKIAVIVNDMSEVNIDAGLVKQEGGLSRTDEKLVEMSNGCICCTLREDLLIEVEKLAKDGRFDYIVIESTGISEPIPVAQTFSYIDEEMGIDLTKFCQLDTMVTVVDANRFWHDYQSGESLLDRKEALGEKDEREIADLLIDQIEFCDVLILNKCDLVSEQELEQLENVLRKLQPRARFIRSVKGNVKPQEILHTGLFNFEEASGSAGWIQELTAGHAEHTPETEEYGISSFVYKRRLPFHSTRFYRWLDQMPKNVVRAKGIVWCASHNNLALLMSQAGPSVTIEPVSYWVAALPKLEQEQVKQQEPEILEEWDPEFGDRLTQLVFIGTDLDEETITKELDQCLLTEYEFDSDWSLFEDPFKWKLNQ

| SMILES | inhibition of ZTPase activity (ZagA (YciC) [1]) | inhibition of GTPase activity (ZagA (YciC) [2]) |
| --- | --- | --- |
| Nc1nc2c(ncn2[C@@H]2O[C@H](COP(=O)(O)OP(=O)(O)NP(=O)(O)O)[C@@H](O)[C@H]2O)c(=O)[nH]1 [GDP-NP] | GDP-NP, a non-hydrolyzable analog of GTP, inhibited ZTP hydrolysis | – |
| NC(=O)c1ncn([C@@H]2O[C@H](COP(=O)(O)O)[C@@H](O)[C@H]2O)c1N [ZMP] | – | Conversely, ZMP inhibited GTP hydrolysis (Fig 4D) |
